For test [1], the target named is T1, Mitogen-activated protein kinase 8 (Homo sapiens, UniProt P45983). Put plainly: DELFIA Assay (Dissociation Enhanced Lanthanide Fluoro-Immuno Assay).
The target of test [2] is T1, Mitogen-activated protein kinase 8. Put plainly: In Vitro Kinase Assay (LanthaScreen Kinase Assay). The protocol: Compounds were tested for their ability to inhibit JNK1 phosphorylation of ATF2 in the Time-Resolved Fluorescence Resonance Energy Transfer (TR-FRET) based LanthaScreen kinase assay (Invitrogen). The signal was measured at 520/495 nm emission ratio on a fluorescence plate reader (Victor 2, Perkin-Elmer).
(In general: Time-resolved FRET reads energy transfer from a long-lived donor to a nearby acceptor.)

T1 sequence (P45983 whole entry): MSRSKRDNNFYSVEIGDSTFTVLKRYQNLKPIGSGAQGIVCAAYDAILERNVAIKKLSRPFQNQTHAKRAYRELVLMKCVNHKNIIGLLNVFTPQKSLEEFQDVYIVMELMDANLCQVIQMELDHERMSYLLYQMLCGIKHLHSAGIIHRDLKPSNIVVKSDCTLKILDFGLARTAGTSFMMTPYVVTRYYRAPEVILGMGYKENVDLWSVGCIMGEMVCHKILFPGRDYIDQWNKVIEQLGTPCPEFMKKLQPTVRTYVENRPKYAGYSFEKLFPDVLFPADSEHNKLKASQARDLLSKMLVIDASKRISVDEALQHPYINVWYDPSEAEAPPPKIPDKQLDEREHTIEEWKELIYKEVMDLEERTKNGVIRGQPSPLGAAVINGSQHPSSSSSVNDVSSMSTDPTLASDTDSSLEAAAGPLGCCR

Consider `O=[N+]([O-])c1cnc(Sc2nnc(O)n2-c2ccc(F)c(F)c2)s1` [triazole, 3k], for which the IC50 in test [1] was 6600 nM.

With `O=c1[nH]nc(Sc2ncc([N+](=O)[O-])s2)n1-c1ccc([N+](=O)[O-])cc1` [triazole, 3j], the IC50 stood at 400 nM in test [1] and 86 nM in test [1] (pH 7.8, 0 °C).

In the case of `COc1ccc(OC)c(-n2c(Sc3ncc([N+](=O)[O-])s3)n[nH]c2=O)c1` [triazole, 3h], the IC50 is 2400 nM in test [1] and 85 nM in test [1] (pH 7.8, 0 °C). `Cn1c(Cc2nc(-c3cnccn3)[n-][o+]2)nnc1Sc1ncc([N+](=O)[O-])s1` [triazole, 7g]: the IC50 in test [1] came to 100000 nM; in test [1] (pH 7.8, 0 °C) it was 131 nM. On to `O=[N+]([O-])c1cnc(Sc2nnc(-c3ccncc3)n2-c2ccccc2)s1` [triazole, 7f], for which the IC50 amounted to 3100 nM in test [1] and 122 nM in test [1] (pH 7.8, 0 °C). For `O=[N+]([O-])c1cnc(Sc2nnc(-c3cccc4ccccc34)n2Cc2ccco2)s1` [triazole, 7d], the IC50 in test [1] worked out at 13600 nM; in test [1] (pH 7.8, 0 °C), 57 nM.

Turning to `COc1ccc(CSc2nnc(SCc3ccc(OC)cc3)s2)cc1` [dithioether 1,3,4-thiadiazole, 8c], in test [2], the IC50 was over 100000 nM. Consider `CC(C)(C)c1ccc(-n2c(O)nnc2Sc2ncc([N+](=O)[O-])s2)cc1` [triazole, 3a], for which the IC50 in test [1] came to 39000 nM; in test [1] (pH 7.8, 0 °C) it was 95 nM. In test [2], `c1ccc(CSc2nnc(SCc3ccccc3)s2)cc1` [dithioether 1,3,4-thiadiazole, 8a] displayed an IC50 of over 100000 nM. As to `O=[N+]([O-])c1cnc(Sc2nnc(O)n2-c2cccc3ccccc23)s1` [triazole, 3g], the IC50 was determined as 2700 nM in test [1] and 48 nM in test [1] (pH 7.8, 0 °C).

With `Nc1nnc(Sc2ncc([N+](=O)[O-])s2)s1` [2-amino-1,3,4-thiadiazole, 9], the IC50 in test [1] turned out to be 239 nM; in test [2] it was 700 nM.

`O=c1[nH]nc(Sc2ncc([N+](=O)[O-])s2)n1-c1ccc(OC(F)(F)F)cc1` [triazole, 3i]: the IC50 in test [1] was determined as 2000 nM; in test [1] (pH 7.8, 0 °C), 130 nM. In the same order, the values of `O=[N+]([O-])c1cnc(Sc2nnc(O)n2C2CCCCC2)s1` [triazole, 3q] are 25000 nM and 56 nM. Turning to `COc1cccc(-n2c(O)nnc2Sc2ncc([N+](=O)[O-])s2)c1` [triazole, 3m], the IC50 in test [1] was 16000 nM; in test [1] (pH 7.8, 0 °C) it was 118 nM. `O=[N+]([O-])c1cnc(Sc2nnc(Sc3ncc([N+](=O)[O-])s3)s2)s1` [dithioether 1,3,4-thiadiazole, 8f]: the IC50 in test [1] came out at 187 nM; in test [2] it was 800 nM. Take `O=c1[nH]nc(Sc2ncc([N+](=O)[O-])s2)n1-c1cccc(F)c1` [triazole, 3l]: the IC50 in test [1] was found to be 84000 nM; in test [1] (pH 7.8, 0 °C) it was 626 nM. In test [2], `O=C(Nc1nnc(Sc2ncc([N+](=O)[O-])s2)s1)c1ccc(F)cc1` [2-amino-1,3,4-thiadiazole, 10] returned an IC50 of 84000 nM. For `O=C(O)c1cnc(Sc2nnc(Sc3ncc(C(=O)O)s3)s2)s1` [dithioether 1,3,4-thiadiazole, 8g], the IC50 in test [1] was 100 nM; in test [2], 84000 nM. In the case of `Cn1cccc1-c1nnc(Sc2ncc([N+](=O)[O-])s2)n1-c1ccc(Cl)cc1Cl` [triazole, 7b], the IC50 is 2000 nM in test [1] and 83 nM in test [1] (pH 7.8, 0 °C). Consider `O=[N+]([O-])c1cccc(CSc2nnc(SCc3cccc([N+](=O)[O-])c3)s2)c1` [dithioether 1,3,4-thiadiazole, 8d], for which the IC50 in test [2] is over 100000 nM.

Take `COc1ccc(-n2c(Sc3ncc([N+](=O)[O-])s3)n[nH]c2=O)cc1OC` [triazole, 3f]: the IC50 in test [1] was 1000 nM; in test [1] (pH 7.8, 0 °C), 43 nM. Consider `O=[N+]([O-])c1ccc(CSc2nnc(SCc3ccc([N+](=O)[O-])cc3)s2)cc1` [dithioether 1,3,4-thiadiazole, 8e], for which the IC50 in test [2] is over 100000 nM. For `O=c1[nH]nc(Sc2ncc([N+](=O)[O-])s2)n1-c1ccc(F)cc1` [triazole, 3c], the IC50 in test [1] was 1800 nM; in test [1] (pH 7.8, 0 °C), 225 nM. For the compound `O=[N+]([O-])c1cnc(Sc2nnc(O)n2-c2cccc(C(F)(F)F)c2)s1` [triazole, 3o], the IC50 in test [1] stood at 2900 nM; in test [1] (pH 7.8, 0 °C) it was 160 nM. For the compound `O=[N+]([O-])c1cnc(Sc2nnc(O)n2-c2ccc(C(F)(F)F)cc2)s1` [triazole, 3p], the IC50 in test [1] is 3000 nM; in test [1] (pH 7.8, 0 °C), 75 nM. As for `COc1cc(OC)cc(-n2c(Sc3ncc([N+](=O)[O-])s3)n[nH]c2=O)c1` [triazole, 3e], the half-maximal inhibitory concentration (IC50) in test [1] was 4300 nM; in test [1] (pH 7.8, 0 °C), 105 nM.

In the case of `Fc1ccc(CSc2nnc(SCc3ccc(F)cc3)s2)cc1` [dithioether 1,3,4-thiadiazole, 8b], in test [2], the half-maximal inhibitory concentration (IC50) was over 100000 nM.

A word on the IC50: it is the concentration that inhibits the measured activity by half.
